From PMC10428205, “Cytotoxicity of Ruthenium(II) Arene Complexes Containing Functionalized Ferrocenyl β-Diketonate Ligands” (Organometallics, 2023)
“And” between values parts separate entries of the source, which are not always exact repeats. Equal entries are not always repeated. Where two headings read alike, the source gives them in different places.

Key:
MIA PaCa-2 [1] = details: read-out: IC50 against MIA PaCa-2 (previously reported analogue); cited from earlier work
MIA PaCa-2 [2] = experiment: Chemosensitivity under hypoxic conditions (0.1% O2, 96 h MTT); format: cell-based, human; details: MIA PaCa-2, 0.1% O2, 96 h MTT
Procedure: (§1) LogP = Log ( [C]final ) Eqn1
(§2) 96 h Chemosensitivity Studies
(§3) In vitro chemosensitivity tests were performed at both the University of Huddersfield and the Institute of Cancer Therapeutics, Bradford, in a sterile Class II Biological Safety Cabinet fitted with a HEPA filtered laminar airflow.
(§4) Cellular assays were conducted against human pancreatic carcinoma (MIA PaCa-2), human colorectal carcinoma p53-wildtype (HCT116 p53+/+), and human non-cancerous epithelial retinal cells (ARPE-19). The ARPE-19 cells were obtained from the American Type Culture Collection and provided by the University of Huddersfield. All cell lines were routinely maintained as monolayer cultures in appropriate complete medium and maintained in either T-25 or T-75 flasks at 37 °C and 5% CO2. MIA PaCa-2 and ARPE-19 cells were cultured in high glucose DMEM-F12 medium containing 10% foetal calf serum, and HCT116 p53+/+ was cultured in RPMI 1640 supplemented with 10% foetal calf serum. All medium was supplemented with sodium pyruvate (1 mM) and L-glutamine (2 mM), and prior to chemosensitivity studies, cell monolayers were passaged using Trypsin-EDTA and diluted to a concentration of 1 x 10^4 cells/mL. All assays were conducted using 96-well plates, in which […] of the 1 x 10^4 cells/mL cell suspension was added to each well and incubated for 24 h at 37 °C and 5% CO2. […] After mixing well, the absorbance of each well was measured at 540 nm using a ThermoFisher Multiskan FC spectrophotometer microplate reader. Using the blank and 100% cell controls, the % cell viability was determined [(abs. of compound containing wells – abs. media wells)/(abs. 100% cell suspension well control)] and from this the % cell death (100%- % cell viability) was calculated. On a logarithmic scale, the percentage cell death was plotted against the concentration of compound, and from this the half maximal inhibitory concentration (IC50) value was determined. […]

MIA PaCa-2 [3] = format: cell-based; details: for Selectivity index (SI), IC50 ARPE-19 / IC50 MIA PaCa-2: 96 h, * = minimum value as at least one IC50 > 100; for IC50: 96 h MTT, normoxic, ± SD, read-out: IC50 against MIA PaCa-2
Procedure: as §1, §2, §3
Cellular assays were conducted against human pancreatic carcinoma (MIA PaCa-2), human colorectal carcinoma p53-wildtype (HCT116 p53+/+), and human non-cancerous epithelial retinal cells (ARPE-19). […]
were obtained from the American Type Culture Collection and provided by the University of Huddersfield. All cell lines were routinely maintained as monolayer cultures in appropriate complete medium and maintained in either […]
T-25 or T-75 flasks at 37 °C and 5% CO2.
10% foetal calf serum. All medium was supplemented with sodium pyruvate (1 mM) and L-glutamine (2 mM), and prior to chemosensitivity studies, cell monolayers were passaged using Trypsin-EDTA and diluted to a […]
cells/mL cell suspension was added to each well and incubated for 24 h at 37 °C and 5% CO2. After 24 h, 100 mL of drug dilutions (fresh 100 mM stock solutions in DMSO) in media were added to the plates and then incubated for a further 96 h at 37°C and 5% CO2 (48 h + 48 h recovery period were used for the shorter exposures with MIA PaCa-2 cells only). After 96 h, 20 mL MTT (3-(4,5-dimethylthiazol-2-yl)-2,5-diphenyltetrazolium bromide, 5 mg/mL) was added to each well and incubated for 3 h at 37 °C and 5% CO2. All solutions were then removed from the 96-well plates via pipette and […] of DMSO added to each well to dissolve the purple formazan […]
FC spectrophotometer microplate reader. Using the blank and 100% cell controls, the % cell viability was determined [(abs. of compound containing wells – abs. media wells)/(abs. 100% cell suspension well control)] and from this the % cell death (100%- % cell viability) was calculated. On a logarithmic scale, the percentage cell death was plotted against the concentration of compound, and from this the half maximal inhibitory concentration (IC50) value was determined. Each of the experiments were performed in triplicate with mean values being stated as the IC50 ± Standard Deviation (SD). […]

HCT116 p53+/+ = experiment: 96 h MTT chemosensitivity assay; format: cell-based, human; details: for Selectivity index (SI), IC50 ARPE-19 / IC50 HCT116 p53+/+: 96 h, * = minimum value as at least one IC50 > 100; for IC50: 96 h MTT, ± SD, read-out: IC50 against HCT116 p53+/+
Procedure: as §1, §2, §3
Cellular assays were conducted against human pancreatic carcinoma (MIA PaCa-2), human colorectal carcinoma p53-wildtype (HCT116 p53+/+), and human non-cancerous epithelial retinal cells (ARPE-19). The ARPE-19 cells were obtained from the American Type Culture Collection and provided by the University of Huddersfield. All cell lines were routinely maintained as monolayer cultures in appropriate complete medium and maintained in either T-25 or T-75 flasks at 37 °C and 5% CO2. MIA PaCa-2 and ARPE-19 cells were cultured in high glucose DMEM-F12 medium containing 10% foetal calf serum, and HCT116 p53+/+ was cultured in RPMI 1640 supplemented with 10% foetal calf serum. All medium was supplemented with sodium pyruvate (1 mM) and L-glutamine (2 mM), and prior to chemosensitivity studies, cell monolayers were passaged using Trypsin-EDTA and diluted to a concentration of 1 x 10^4 cells/mL. All assays were conducted using 96-well plates, in which […] of the 1 x 10^4 cells/mL cell suspension was added to each well and incubated for 24 h at 37 °C and 5% CO2. After 24 h, 100 mL of drug dilutions (fresh 100 mM stock solutions in DMSO) in media were added to the plates and then incubated for a further 96 h at 37°C and 5% CO2 (48 h + 48 h recovery period were used for the shorter exposures with MIA PaCa-2 cells only). After 96 h, 20 mL MTT (3-(4,5-dimethylthiazol-2-yl)-2,5-diphenyltetrazolium bromide, 5 mg/mL) was added to each well and incubated for 3 h at 37 °C and 5% CO2. All solutions were then removed from the 96-well plates via pipette and […] of DMSO added to each well to dissolve the purple formazan crystals. After mixing well, the absorbance of each well was measured at 540 nm using a ThermoFisher Multiskan FC spectrophotometer microplate reader. Using the blank and 100% cell controls, the % cell viability was determined [(abs. of compound containing wells – abs. media wells)/(abs. 100% cell suspension well control)] and from this the % cell death (100%- % cell viability) was calculated. On a logarithmic scale, the percentage cell death was plotted against the concentration of compound, and from this the half maximal inhibitory concentration (IC50) value was determined. Each of the experiments were performed in triplicate with mean values being stated as the IC50 ± Standard Deviation (SD). […]
(§5) All assays were conducted in triplicate.

ARPE-19 = experiment: 96 h MTT chemosensitivity assay, normal cells; format: cell-based, human; details: normal retinal epithelial cells, ± SD, read-out: IC50 against ARPE-19
Procedure: as §1, §2, §3, §4

MIA PaCa-2 [4] = experiment: 24 and 48 h chemosensitivity (MTT, with recovery period); format: cell-based, human
Procedure: as §1, §2, §3
Cellular assays were conducted against human pancreatic carcinoma (MIA PaCa-2), human colorectal carcinoma p53-wildtype (HCT116 p53+/+), and human non-cancerous epithelial retinal cells (ARPE-19). The ARPE-19 cells were obtained from the American Type Culture Collection and provided by the University of Huddersfield. All cell lines were routinely maintained as monolayer cultures in appropriate complete medium and maintained in either T-25 or T-75 flasks at 37 °C and 5% CO2. MIA PaCa-2 and ARPE-19 cells were cultured in high glucose DMEM-F12 medium containing 10% foetal calf serum, and HCT116 p53+/+ was cultured in RPMI 1640 supplemented with 10% foetal calf serum. All medium was supplemented with sodium pyruvate (1 mM) and L-glutamine (2 mM), and prior to chemosensitivity studies, cell monolayers were passaged using Trypsin-EDTA and diluted to a concentration of 1 x 10^4 cells/mL. All assays were conducted using 96-well plates, in which […] of the 1 x 10^4 cells/mL cell suspension was added to each well and incubated for 24 h at 37 °C and 5% CO2. After 24 h, 100 mL of drug dilutions (fresh 100 mM stock solutions in DMSO) in media were added to the plates and then incubated for a further 96 h at 37°C and 5% CO2 (48 h + 48 h recovery period were used for the shorter exposures with MIA PaCa-2 cells only). After 96 h, 20 mL MTT (3-(4,5-dimethylthiazol-2-yl)-2,5-diphenyltetrazolium bromide, 5 mg/mL) was added to each well and incubated for 3 h at 37 °C and 5% CO2. All solutions were then removed from the 96-well plates via pipette and […] of DMSO added to each well to dissolve the purple formazan crystals. After mixing well, the absorbance of each well was measured at 540 nm using a ThermoFisher Multiskan FC spectrophotometer microplate reader. Using the blank and 100% cell controls, the % cell viability was determined [(abs. of compound containing wells – abs. media wells)/(abs. 100% cell suspension well control)] and from this the % cell death (100%- % cell viability) was calculated. On a logarithmic scale, the percentage cell death was plotted against the concentration of compound, and from this the half maximal inhibitory concentration (IC50) value was determined. Each of the experiments were performed in triplicate with mean values being stated as the IC50 ± Standard Deviation (SD).
24 and 48 h Chemosensitivity Studies
The same experimental protocol described for the 96 h MTT assay was used, and the MIA PaCa-2 cells were incubated for either 24 or 48 h, with a 72 or 48 h recovery period respectively. […]
as §5

[(bpy)2(Fc-acac)Ru][PF6] [Figure 1F]
IC50 (MIA PaCa-2 [1]): 0.11 ± 0.01 µM

O=C1[O][Pt]2([NH][C@@H]3CCCC[C@H]3[NH]2)[O]C1=O [OXA, oxaliplatin, reference compound]
IC50 under hypoxic conditions (MIA PaCa-2 [2]): decrease in cytotoxicity
Selectivity index (SI), IC50 ARPE-19 / IC50 MIA PaCa-2 (MIA PaCa-2 [3]): 0.5
IC50 (MIA PaCa-2 [3]): 6 ± 1 µM
Selectivity index (SI), IC50 ARPE-19 / IC50 HCT116 p53+/+ (HCT116 p53+/+): 3.2
IC50 (HCT116 p53+/+): 0.9 ± 0.1 µM
IC50 (ARPE-19): 3 µM and 6 µM

N.N.O=C([O-])C1(C(=O)[O-])CCC1.[Pt+2] [CARB, carboplatin, reference compound]
Selectivity index (SI), IC50 ARPE-19 / IC50 MIA PaCa-2 (MIA PaCa-2 [3]): 2.2
IC50 (MIA PaCa-2 [3]): 36 ± 3 µM
Selectivity index (SI), IC50 ARPE-19 / IC50 HCT116 p53+/+ (HCT116 p53+/+): 2.4
IC50 (HCT116 p53+/+): 32 ± 11 µM
IC50 (ARPE-19): 77 ± 10 µM

O=C(C=C(O)c1ccco1)[c-]1cccc1.[Fe+2].c1cc[cH-]c1 [Complex L4]
E0′ (Fc*/Fc*+) (Cyclic voltammetry; 0.1 M TBAPF6 in acetonitrile, vs SCE, Fc/Fc+ = 0.40 V internal standard): 0.63 V
EP Red (Cyclic voltammetry; irreversible reduction, vs SCE): –1.70 V
E0’ (Fc*/Fc*+) at 0.05 V/s (Cyclic voltammetry; scan speed 0.05 V/s): 0.64 V
E0’ (Fc*/Fc*+) at 0.10 V/s (Cyclic voltammetry; scan speed 0.10 V/s): 0.63 V
E0’ (Fc*/Fc*+) at 0.25 V/s (Cyclic voltammetry; scan speed 0.25 V/s): 0.63 V
IC50 (MIA PaCa-2 [3]): 42.1 ± 0.8 µM
IC50 (MIA PaCa-2 [4]; MIA PaCa-2, 24 h exposure + 72 h recovery, read-out: IC50 values ± SD, 24 h): > 100 µM
IC50 (MIA PaCa-2 [4]; MIA PaCa-2, 48 h exposure + 48 h recovery, read-out: IC50 values ± SD, 48 h): 43 ± 1 µM
